Molecular target: T1, GSK3β (Homo sapiens, UniProt P49841)
T1 construct: made in house; host or cells: Sf21 insect cells
Test: Assay for inhibitory activity against GSK3β (Kinase-Glo luminescence)
Assay type: biochemical
Conditions: 750 nM ATP, 4 μM GSY-2 phosphopeptide; for inhibition at 25 µM: compound at 25 μM; for inhibition at 25 µM / inhibition at 50 µM: vs control without compound; for inhibition at 50 µM: compound at 50 μM
Description: The compounds of the present invention were assayed for inhibitory activity against GSK3β. The GSK-3 is implicated in the incidence of various diseases including diabetes, Alzheimer's disease, CNS disorders and hypertrophic cardiomyopathy.
GSK3β was purified from Sf21 cells using a procedure described in the literature, R. Dajani et. al. (Cell 2001, […], 721-732). GSK3β activity was examined at room temperature in 50 μl of 40 mM Tris-HCl, pH7.4, 10 mM MgCl2, 1 mM DTT, 0.2 mM EDTA, 200 μM NaVO3, 10 mM β-glyceralphosphate, 1 mM EGTA buffer containing 750 nM ATP and 4 μM GSY-2 phosphopeptide (substrate). After incubation at room temperature for […], Kinase-Glo reagent (Promega) was added to reaction mixtures of Preparation Examples 1-1 to 1-12, 1-80 to 1-90, and 1-92. The well plates were incubated at room temperature for […] to stabilize luminescent signals. The luminescent intensity, reflecting the quantity of ATP, was recorded using a counter (Wallac Victor 1420 multilabel counter) and used to determine % inhibition of GSK3β as compared to ATP level in the control to which none of the compounds of the present invention were added.

T1 sequence (P49841 whole entry): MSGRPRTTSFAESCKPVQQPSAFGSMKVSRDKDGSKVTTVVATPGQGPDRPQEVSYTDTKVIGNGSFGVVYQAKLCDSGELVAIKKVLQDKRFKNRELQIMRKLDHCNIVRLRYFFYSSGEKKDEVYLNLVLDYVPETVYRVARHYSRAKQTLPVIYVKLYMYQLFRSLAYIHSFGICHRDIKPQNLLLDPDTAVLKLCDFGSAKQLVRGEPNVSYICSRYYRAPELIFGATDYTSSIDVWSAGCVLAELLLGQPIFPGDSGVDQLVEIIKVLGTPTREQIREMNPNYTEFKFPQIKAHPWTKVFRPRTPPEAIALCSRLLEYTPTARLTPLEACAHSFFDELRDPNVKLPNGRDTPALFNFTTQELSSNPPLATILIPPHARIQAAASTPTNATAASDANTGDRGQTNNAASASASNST

COc1ccn2ncc(-c3nc4[nH]nc(NC(=O)C5CC5)c4cc3F)c2c1 [Example 1-8]
inhibition at 25 µM: 37.7%
inhibition at 50 µM: 61.6%

O=C(Nc1nn(C(=O)C2CCCC2)c2nc(-c3cnn4ccccc34)c(F)cc12)C1CCCC1 [Example 1-94]
inhibition at 25 µM: 41.7%
inhibition at 50 µM: 87.2%

COc1ccn2ncc(-c3nc4[nH]nc(N)c4cc3F)c2c1 [Example 1-12]
inhibition at 25 µM: 87.7%

CC(=O)OCCn1nc(N)c2cc(F)c(-c3cnn4c(C)cccc34)nc21 [Example 1-80]
inhibition at 25 µM: 19.7%
inhibition at 50 µM: 37.8%

Nc1nn(CCO)c2nc(-c3cnn4ccccc34)c(F)cc12 [Example 1-87]
inhibition at 25 µM: 26.7%

O=C(Nc1n[nH]c2nc(-c3cnn4ccccc34)c(F)cc12)C1CCCC1 [Example 1-2]
IC50: 14.9 µM
inhibition at 25 µM: 76.9%
inhibition at 50 µM: 95.3%

CC(=O)OCCn1nc(NC(=O)c2ccc(F)cc2)c2cc(F)c(-c3cnn4c(C)cccc34)nc21 [Example 1-81]
inhibition at 25 µM: 81.9%
inhibition at 50 µM: 97.5%

CC(=O)OCCn1nc(NC(=O)Cc2ccc(F)cc2)c2cc(F)c(-c3cnn4ccccc34)nc21 [Example 1-95]
inhibition at 25 µM: 53.2%
inhibition at 50 µM: 78.9%

COc1ccn2ncc(-c3nc4c(cc3F)c(N)nn4CCO)c2c1 [Example 1-90]
inhibition at 25 µM: 116%

Nc1n[nH]c2nc(-c3cnn4ccccc34)c(F)cc12 [Example 1-11]
inhibition at 25 µM: 30%

CC(=O)OCCn1nc(N)c2cc(F)c(-c3cnn4ccccc34)nc21 [Example 1-82]
inhibition at 25 µM: 64.5%
inhibition at 50 µM: 80.4%

Cc1cccc2c(-c3nc4[nH]nc(NC(=O)C5CCCC5)c4cc3F)cnn12 [Example 1-4]
inhibition at 25 µM: 63.8%
inhibition at 50 µM: 82.1%

Cc1cccc2c(-c3nc4[nH]nc(NC(=O)c5cccc(C#N)c5)c4cc3F)cnn12 [Example 1-5]
inhibition at 25 µM: 35.1%
inhibition at 50 µM: 78%

Cc1cccc2c(-c3nc4[nH]nc(NC(=O)c5ccc(N(C)C)cc5)c4cc3F)cnn12 [Example 1-7]
IC50: 13.3 µM
inhibition at 25 µM: 71.2%
inhibition at 50 µM: 92.3%

Cc1cccc2c(-c3nc4[nH]nc(NC(=O)Cc5ccc(F)cc5)c4cc3F)cnn12 [Example 1-6]
inhibition at 25 µM: 48.3%
inhibition at 50 µM: 70.8%

COc1ccn2ncc(-c3nc4c(cc3F)c(NC(=O)c3ccccc3)nn4CCO)c2c1 [Example 1-92]
inhibition at 25 µM: 117%

COc1ccn2ncc(-c3nc4c(cc3F)c(N)nn4CCOC(C)=O)c2c1 [Example 1-83]
inhibition at 25 µM: 81.2%
inhibition at 50 µM: 87.2%

CC(=O)OCCn1nc(NC(=O)C2CCCC2)c2cc(F)c(-c3cnn4ccccc34)nc21 [Example 1-85]
IC50: 34.9 µM
inhibition at 25 µM: 68.6%
inhibition at 50 µM: 90.1%

CC(=O)OCCn1nc(NC(=O)c2ccccc2)c2cc(F)c(-c3cnn4ccccc34)nc21 [Example 1-88]
inhibition at 25 µM: 23%

O=C(Cc1ccc(F)cc1)Nc1n[nH]c2nc(-c3cnn4ccccc34)c(F)cc12 [Example 1-10]
IC50: 14.4 µM
inhibition at 25 µM: 77.4%
inhibition at 50 µM: 90.7%

O=C(Nc1nn(CCO)c2nc(-c3cnn4ccccc34)c(F)cc12)c1ccccc1 [Example 1-89]
inhibition at 25 µM: 1.5%

CC(=O)OCCn1nc(NC(=O)C2CC2)c2cc(F)c(-c3cnn4ccccc34)nc21 [Example 1-84]
inhibition at 25 µM: 24.4%
inhibition at 50 µM: 49.5%

O=C(Nc1n[nH]c2nc(-c3cnn4ccccc34)c(F)cc12)C1CC1 [Example 1-1]
IC50: 10.2 µM
inhibition at 25 µM: 80.8%
inhibition at 50 µM: 96.3%

Cc1cccc2c(-c3nc4c(cc3F)c(NC(=O)c3ccc(F)cc3)nn4C(=O)c3ccc(F)cc3)cnn12 [Example 1-93]
inhibition at 25 µM: 51.6%
inhibition at 50 µM: 88.6%

COc1ccn2ncc(-c3nc4[nH]nc(NC(=O)Cc5ccc(F)cc5)c4cc3F)c2c1 [Example 1-9]
IC50: 20 µM
inhibition at 25 µM: 58.2%
inhibition at 50 µM: 94.6%

Cc1cccc2c(-c3nc4[nH]nc(NC(=O)C5CC5)c4cc3F)cnn12 [Example 1-3]
inhibition at 25 µM: 11.6%
inhibition at 50 µM: 53.1%

O=C(Cc1ccc(F)cc1)Nc1nn(CCO)c2nc(-c3cnn4ccccc34)c(F)cc12 [Example 1-86]
inhibition at 25 µM: 47.9%
inhibition at 50 µM: 86.5%
